In patent US11897898B2, “Pyridine macrocycle compounds as ASK1 inhibiting agents” (BIOGEN MA INC., priority 2018, dated 2024) one finds Kp uu and IC50 data, which are given here for eight compounds.

Data set [1] can be described thus: In vivo brain penetration (rat Kpuu study). The settings on record: brain and plasma (unbound), IV infusion in the carotid artery for four hours, 1 mg/kg, steady state, Kpuu=Cu,b/Cu,p. The method, then: To evaluate the CNS penetration of the compounds described herein, several compounds were selected for in vivo rat Kpuu studies. In these experiments the compounds are administered via an IV infusion (using N,N-dimethylacetamide:ethanol:1,2-propylene glycol:water in a 1:1:3:5 ratio as the vehicle) in the carotid artery for a period of four hours (1 mg/kg, 0.1 mg/mL) to reach steady state. After this time the plasma and brain concentration levels are quantified, and the values are adjusted by the measured protein binding in plasma and brain homogenate to calculate the Kpuu (see Di, L.; Kerns, E. H. Blood-Brain Barrier in Drug Discovery (Wiley)) according to the equation below. Kpuu=Cu,b/Cu,p • Wherein: • Cu,b=Unbound concentration in brain (C×fu,b). (C=concentration at steady state; fu,b=fraction unbound in brain) • And in which: Cu,p=Unbound concentration in plasma (C×fu,p). (C=concentration at steady state; fu,p=fraction unbound in plasma)
Plasma and brain protein binding values were generated via the Rapid Equilibrium Dialysis method. The compound of interest was incubated in K2EDTA plasma and brain homogenate (homogenized 1:7 (w:v) in 1×PBS) purchased from BioIVT (Westbury, N.Y.), opposite a buffered compartment of 100 mM Potassium phosphate/150 mM Sodium chloride, pH 7.4, at 1 μM for 4 hr and 6 hr respectively. At the conclusion of incubation samples were taken from both matrix and buffered compartments, matrix-matched using blank buffer and matrix, extracted with acetonitrile, diluted with water, and analyzed utilizing an Agilent RapidFire 365 high-throughput LC coupled with MS/MS detection via an AB Sciex 5500. Free fractions (fu) were then calculated by comparing internal standard/analyte peak-area ratios of matrix and buffered compartments. Cross-species brain protein binding was considered to be equivalent for the purposes of calculating free fraction (see Di, L., et al., (2011a) Species Independence in Brain Tissue Binding Using Brain Homogenates, Drug Metab Dispos 39:1270-1277).
Total drug concentration in plasma and brain tissue was measured via well-established bioanalytical extraction (protein precipitation) and detection methods (LC-MS/MS). Brain tissues were homogenized 1:4 (w:v) with 1×PBS in MP Biomedicals Lysing Matrix D tubes via an MP Biomedicals FastPrep-24™ homogenizer and were then extracted alongside plasma samples by matrix-matching with blank K2EDTA plasma (purchased from BioIVT), followed by protein crash/extraction with acetonitrile, supernatant dry down under nitrogen, and reconstitution with an acidified aqueous/organic mixture before being measured against a calibration curve of the compound of interest prepared in plasma, matrix-matched with blank brain homogenate (generated with brains purchased from BioIVT), and similarly extracted. Reconstituted extracts were then analyzed via LC-MS/MS (AB Sciex 5500) utilizing a binary HPLC setup (Shimadzu LC-20ADvp) and reverse-phase chromatography gradient (ACE 3 C18-AR). Peak area ratios and a 1/x^2 regression fit were used to generate sample concentration values that, combined with plasma and brain protein binding values, were used to generate free drug concentration values and partitioning coefficient (Kpuu).

Data set [2] concerns the target T1, ASK1 T838 auto phosphorylation (Homo sapiens, UniProt Q99683).
T1 construct: ASK1-V5 tagged full length plasmid; expressed in transfected cells; host or cells: HEK-293T
T1 sequence (Q99683 1-1374): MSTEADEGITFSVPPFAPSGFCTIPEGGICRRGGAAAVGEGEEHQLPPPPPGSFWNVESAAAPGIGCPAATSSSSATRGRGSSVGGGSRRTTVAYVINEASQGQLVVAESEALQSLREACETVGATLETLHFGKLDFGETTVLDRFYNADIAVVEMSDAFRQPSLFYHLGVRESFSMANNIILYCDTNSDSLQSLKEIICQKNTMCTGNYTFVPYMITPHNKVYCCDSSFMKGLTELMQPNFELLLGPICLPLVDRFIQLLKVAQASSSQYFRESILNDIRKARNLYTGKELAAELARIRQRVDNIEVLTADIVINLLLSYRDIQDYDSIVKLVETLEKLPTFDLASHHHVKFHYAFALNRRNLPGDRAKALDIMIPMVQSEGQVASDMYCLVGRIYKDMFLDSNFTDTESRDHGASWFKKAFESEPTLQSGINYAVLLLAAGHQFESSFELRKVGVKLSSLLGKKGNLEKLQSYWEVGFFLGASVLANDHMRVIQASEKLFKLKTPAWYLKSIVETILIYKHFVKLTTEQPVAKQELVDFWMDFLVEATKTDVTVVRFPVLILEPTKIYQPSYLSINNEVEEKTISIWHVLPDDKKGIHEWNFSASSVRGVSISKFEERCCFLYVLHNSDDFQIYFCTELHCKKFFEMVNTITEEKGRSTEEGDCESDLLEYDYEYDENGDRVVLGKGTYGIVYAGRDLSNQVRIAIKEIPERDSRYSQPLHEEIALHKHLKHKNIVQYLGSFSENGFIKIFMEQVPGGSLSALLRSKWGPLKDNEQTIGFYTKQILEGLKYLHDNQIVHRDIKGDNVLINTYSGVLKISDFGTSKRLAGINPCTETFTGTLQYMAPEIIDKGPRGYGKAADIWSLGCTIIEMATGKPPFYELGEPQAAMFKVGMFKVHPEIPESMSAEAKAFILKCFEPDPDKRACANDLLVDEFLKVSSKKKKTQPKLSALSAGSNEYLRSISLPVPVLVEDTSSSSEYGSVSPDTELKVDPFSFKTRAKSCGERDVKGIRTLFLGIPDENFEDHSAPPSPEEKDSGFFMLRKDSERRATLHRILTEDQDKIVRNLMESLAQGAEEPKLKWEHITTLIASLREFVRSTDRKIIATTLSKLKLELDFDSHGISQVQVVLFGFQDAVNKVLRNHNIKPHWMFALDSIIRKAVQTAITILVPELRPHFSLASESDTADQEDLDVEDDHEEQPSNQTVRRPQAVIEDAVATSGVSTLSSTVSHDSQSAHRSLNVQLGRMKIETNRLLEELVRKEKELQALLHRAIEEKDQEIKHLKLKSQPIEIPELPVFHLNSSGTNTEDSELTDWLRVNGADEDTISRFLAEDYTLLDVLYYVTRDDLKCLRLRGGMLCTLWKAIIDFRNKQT
Kind of data set: ASK1 (AUTO PHOS T838) assay in HEK-293T cells, MSD format. Format: cell-based. The settings on record: HEK-293T cells transfected with ASK1-V5, 1 hr compound incubation; class symbols. On the procedure:
ASK1 T838 auto phosphorylation was measured in HEK-293T cells using MSD assay format. HEK 293T cells were seeded in 15 cm plates at a density of 18 million cells and 20 mL DMEM with 10% FBS, Pen/Strep media. The plates were incubated at 37° C. overnight. Media on plates was changed to OPTI-MEM, serum free media and cells were transfected with 9 μg of ASK1-V5 tagged full length plasmid using Lipofectamine 2000 (Invitrogen) and the plates were incubated at 37° C. overnight. Cells were trypsinized, counted on Nexcellometer and plated into 96 well tissue culture plates with 100,000 cells/well and 200 μL media. Cells were incubated for 4 hr at 37° C. then ASK1 compounds were added using a HP 300e. Compounds were tested at 20 μM with 3 fold, 10 point dilution points then incubated for 1 hr at 37° C. A lysis buffer (Cell Signaling) was prepared with protease and phosphatase inhibitor and maintained at 4° C. until use. Media from cells was discarded and 120 μL of cold lysis buffer was added to the cells, the plate was shaken 4° C. for 1 hr. Lysate was mixed using Apricot liquid handler; aspirating up and down 16 times at high speed using 50 μL volume. 50 μL of cell lysates were transferred to a pre-coated MSD plates containing mouse anti-V5 antibody (1:500 dilution) and washed 3× with MSD wash buffer (TBST) and blocked with a 3% BSA solution. Plates were then incubated on a plate shaker overnight at 4° C. Plates were washed 3× with MSD wash buffer and 50 μL of rabbit anti-pASK1 T838 antibody was added to the wells and incubated for 2 hr at room temperature on a plate shaker. Plates were then washed and 50 μL of goat anti-rabbit sulfa-tag (1:500 dilution) was added to wells, and incubated for 1 hr at room temperature on a plate shaker. Plates were washed 3× and 150 μL of 2×MSD Read buffer was added to wells. Plates were immediately read on a MSD Instrument Reader where chemoluminecense signal was measured. Data was analyzed using Graph Pad or Genedata, the data was normalized and plotted, % activity versus log of compound concentration. The IC50 values were obtained from a 4 parameter fit.

A further data set has as its target T2, ASK1/MAP3K5 (Homo sapiens, UniProt Q99683).
T2 construct: purchased Reaction Biology Corp. (Malvern, Pa.)
T2 sequence (Q99683 1-1374): T1 sequence (Q99683 1-1374)
Kind of data set: ASK1 enzyme assay (ASK1/MAP3K5 assay by Reaction Biology Corp., 33P-ATP filter-binding). The data set is classed as biochemical. Particulars: 20 μM myelin basic protein and 10 μM ATP; class symbols. On the procedure: The protein kinase inhibitory activity of the compounds described herein were tested using the ASK1/MAP3K5 assay by Reaction Biology Corp. (Malvern, Pa.). The assay procedure follows (and is also available on the Reaction Biology Corp. website). • Base Reaction Buffer: 20 mM Hepes (pH 7.5), 10 mM MgCl2, 1 mM EGTA, • 0.02% Brij35, 0.02 mg/mL BSA, 0.1 mM Na3VO4, 2 mM DTT, 1% DMSO; • Substrate: 20 μM of myelin basic protein (MBP) and 10 μM ATP; • Protein kinase: ASK1/MAP3K5. • Reaction Procedure: • 1. Prepare indicated substrate in freshly prepared Base Reaction Buffer. • 2. Deliver any required cofactors to the substrate solution. • 3. Deliver indicated kinase into the substrate solution and gently mix. • 4. Deliver compounds in DMSO into the kinase reaction mixture by Acoustic; technology (Echo550; nanoliter range), incubate for 20 minutes at room temperature. • 5. Deliver ^33P-ATP (specific activity 10 μCi/μL) into the reaction mixture to initiate the reaction. • 6. Incubate kinase reaction for 2 hours at room temperature. • 7. Reactions are spotted onto P81 ion exchange paper. • 8. Detect kinase activity by filter-binding method.

Take `Cc1ccc(-c2cnc3c(c2)C(=O)Nc2cccc(n2)-c2nncn2[C@@H](C)CCCO3)cn1` [Compound 19, (S)-10-Methyl-5^5-(6-methylpyridin-3-yl)-1^4H-6-oxa-3-aza-2(2,6),5(3,2)-dipyridina-1(3,4)-triazolacyclodecaphan-4-one]: the Kp uu at 4 h in data set [1] is < 0.1. Also, the IC50 (as a rule, the concentration that inhibits the measured activity by half) in data set [2] was ≤ 100 nM.
For `C[C@H]1CCCOc2ncc(N3CCN(C)CC3)cc2C(=O)Nc2cccc(n2)-c2nncn21` [Compound 10, (S)-10-Methyl-5^5-(4-methylpiperazin-1-yl)-1^4H-6-oxa-3-aza-2(2,6),5(3,2)-dipyridina-1(3,4)-triazolacyclodecaphan-4-one], in that order: < 0.1 and ≤ 100 nM.
On to `C[C@H]1CCCOc2ncc(C3CN(C)C3)cc2C(=O)Nc2cccc(n2)-c2nncn21` [Compound 47, (S)-10-Methyl-5^5-(1-methylazetidin-3-yl)-1^4H-6-oxa-3-aza-2(2,6),5(3,2)-dipyridina-1(3,4)-triazolacyclodecaphan-4-one], for which the figures for the IC50 (in data set [2]; on ASK1/MAP3K5) were 100 to 1000 nM and ≤ 100 nM, respectively.
For `C[C@H]1CCCOc2ncc(-n3cncc3C3CC3)cc2C(=O)Nc2cccc(n2)-c2nncn21` (single isomer, unassigned) [Compound 33], in that order: 100 to 1000 nM and ≤ 100 nM.
With `C[C@H]1CCCOc2ncc(C3COC3)cc2C(=O)Nc2cccc(n2)-c2nncn21` [Compound 45, (S)-10-Methyl-5^5-(oxetan-3-yl)-1^4H-6-oxa-3-aza-2(2,6),5(3,2)-dipyridina-1(3,4)-triazolacyclodecaphan-4-one], the IC50 (in data set [2]; at ASK1/MAP3K5) was ≤ 100 nM in each case.
In the case of `C[C@H]1CCCOc2ncc(C3CN(C(=O)OC(C)(C)C)C3)cc2C(=O)Nc2cccc(n2)-c2nncn21` [Compound 46, tert-Butyl (S)-3-(10-methyl-4-oxo-1^4H-6-oxa-3-aza-2(2,6),5(3,2)-dipyridina-1(3,4)-triazolacyclodecaphane-5^5-yl)azetidine-1-carboxylate], the IC50 (in data set [2]; at ASK1/MAP3K5) was ≤ 100 nM each time.
On to `CC1CCCOc2ncccc2C(=O)Nc2cccc(n2)-c2nncn21` (stereo not shown) [Compound 3, 10-Methyl-1^4H-6-oxa-3-aza-2(2,6),5(3,2)-dipyridina-1(3,4)-triazolacyclodecaphan-4-one], for which the IC50 is 100 to 1000 nM in data set [2] and ≤ 100 nM at ASK1/MAP3K5.
Taken in the same sequence, the figures for `C[C@H]1CCCOc2ncc(-n3cnc(C4CC4)c3)cc2C(=O)Nc2cccc(n2)-c2nncn21` (single isomer, unassigned) [Compound 32] were ≤ 100 nM and ≤ 100 nM.
